A short description of one data set: MTT reduction. The conditions noted are these: human; for CC50 at 24 h: MTT TC50, SK-MEL28, 24 HR. The protocol: Tetrazolium Dye Reduction: 3-[4,5-dimethylthiazol-2-yl]
(§1) The test compound consisted of two parts mixed in a constant ratio of 5:1. The final test mixture consisted of Test mix 1 and Test mix 2, which were received as frozen solutions. The test mixture was tested in a ratio of 5:1 COMP A in five different cell types which included the following: SK-MEL28, human hepatocytes, HUVEC, C32, and NHEM cells. Cells were seeded into 96-well plates and cultured in medium containing 10% bovine serum. […]
(§2) Experimental Protocol: The test compounds were shipped on dry ice for testing. The compounds were stored frozen at −80° C. until needed. Dosing solutions were prepared in complete culture medium. SK-MEL28, human hepatocytes, HUVEC, C32, and NHEM cells were used as the test systems. Cells were seeded into 96-well plates and allowed to equilibrate for approximately 48 hr. Following the equilibration period the cells were exposed to the test compound mix at concentrations of COMP A (μg/mL)=(250:50), (125:25), (25:12.5), (12.5:2.5), (2.5:1.25), (1.25:0.25), and (0.25:0.05). Solubility was determined by Nephalometry techniques immediately after dosing and prior to harvesting the cells at 24 hr. Following the exposure period, the cells or their supernatant (culture medium) were analyzed for changes in cell proliferation, membrane leakage, mitochondrial function, oxidative stress, and apoptosis. The resultant exposure concentration response curves were graphed and analyzed for determining the concentration that produced a half maximal response or TC50.

For another data set, the system named is SK-MEL28 cells. Description: Membrane lipid peroxidation (8-isoprostane ELISA). The procedure: Lipid Peroxidation Measured as 8-Isoprostane (8-ISO): 8-ISO levels were determined using an ELISA. 8-ISO is a member of a family of eicosanoids produced non-enzymatically by random oxidation of tissue phospholipids by oxygen radicals. Therefore, an increase in 8-ISO is an indirect measure of increased lipid peroxidation (Vacchiano and Tempel, 1994). At the end of the exposure period, plates were either analyzed immediately or stored at −80° C. until needed for analysis. Color development, which is […] to the amount of 8-ISO present in the sample, was read on a Packard Fusion or equivalent plate reader at 415 nm.
Lipid Peroxidation Measured as 8-Isoprostane (8-ISO): Background absorbance produced from Ellman's reagent is subtracted from all wells. Non-specific binding is subtracted from the maximum binding wells to give a corrected maximum binding expressed as Bo. The percent of bound (B) relative to maximum binding capacity (Bo) for all unknown samples and for standards was determined an expressed as (% B/Bo). The % B/Bo for standards was plotted against the log of 8-ISO added to yield the final standard curve. This curve was used to convert % B/Bo to pg 8-ISO/mL of sample.
as §1
as §2, with “Solubility was determined by Nephalometry techniques immediately after dosing and prior to harvesting the cells at 24 hr.” left out

The nature of data set [1]: Intracellular total glutathione (GSH). The conditions noted are these: human. The procedure:
Intracellular Glutathione (GSH) Levels: Intracellular glutathione levels were determined essentially as described by Griffith (1980) with modifications. At the end of the exposure period, the medium was removed from the cells and metaphosphoric acid (MPA) was added to each well. Plates were then shaken for 5 min at room temperature and stored at −20° C. until needed.
The sample plates were thawed just prior to analysis and centrifuged at >2000×g for at least 2 min. Sample aliquots were removed and transferred to a clean 96-well plate along with appropriate standard curve controls. Sample pH was neutralized just prior to analysis and each well received an aliquot of sodium phosphate reaction buffer containing EDTA, DTNB, NADPH, and glutathione reductase. The plates were mixed for 15-30 min at room temperature and glutathione content was determined calorimetrically with a Packard Fusion or equivalent reader at 415 nm.
Intracellular Glutathione (GSH) Levels: The assay is based on the concept that all GSH is oxidized to GSSG by DTNB reagent. Two molecules of GSH are required to make one molecule of GSSG. Total GSH was determined by reducing GSSG to 2GSH with glutathione reductase. A standard curve was prepared with oxidized glutathione (GSSG) over a range of concentrations. These concentrations are then converted to glutathione equivalents (GSX) essentially by multiplying the GSSG standard concentrations by 2. The amount of GSX expressed as pmoles/well was determined using the standard curve and regression analysis.
The test compound consisted of two parts mixed in a constant ratio of 5:1. The final test mixture consisted of Test mix 1 and Test mix 2, which were received as frozen solutions. The test mixture was tested in a ratio of 5:1 COMP A in five different cell types which included the following: SK-MEL28, human hepatocytes, HUVEC, C32, and NHEM cells. Cells were seeded into 96-well plates and cultured in medium containing 10% bovine serum. Following an equilibration period of 48 hr, the cells were treated with the test compound mix at concentrations of COMP A (μg/mL)=(250:50), (125:25), (25:12.5), (12.5:2.5), (2.5:1.25), (1.25:0.25), and (0.25:0.05) for 24 hr (overnight) at 37° C. in 5% CO2. […] Following an equilibration period of 4 hr, the cells were treated with the test compound mix at concentrations of COMP A (μg/mL)=(250:50), (125:25), (25:12.5), (12.5:2.5), (2.5:1.25), (1.25:0.25), and (0.25:0.05) for 24 hr (overnight) at 37° C. in 5% CO2.
as §2

Where [2] appears, read: SK-MEL28, 24 HR, COMP A (LOW) / controls #2.
Where [3] appears, read: SK-MEL28, 72 HR, COMP A (LOW) / controls #2.

The results in this text go back to US7615361B2, “Toxicity screening methods” (Ceetox, Inc., priority 2006, dated 2009).

Turning to `CC[C@@]1(O)C(=O)OCc2c1cc1n(c2=O)Cc2cc3ccccc3nc2-1` [CAMPTOTHECIN, Camptothecin], the CC50 at 24 h in the data set “MTT reduction” (SK-MEL28 cells) worked out at 241000 nM; in “MTT reduction” (SK-MEL28 cells, run #2) it was 249000 nM; in data set [1] (C32 cells) it was 1000 nM; in data set [1] (HUVEC cells), 1000 nM; in data set [1] (human hepatocytes), 44000 nM. Moreover, the CC50 at 72 h in “MTT reduction” (SK-MEL28 cells, MTT TC50, SK-MEL28, 72 HR, run #2) was 100 nM. Moreover, the “Membrane Lipid Peroxidation” value in the data set with SK-MEL28 cells (SK-MEL28, 24 HR) is 0; in the data set with SK-MEL28 cells (setting [2]), 0; with SK-MEL28 cells (setting [3]), 1 (1 = Modest increase with maximum values ≦15 pg/mL).

In the case of `C=C(C)[C@H]1Cc2c(ccc3c2O[C@@H]2COc4cc(OC)c(OC)cc4[C@@H]2C3=O)O1` [ROTENONE, Rotenone], in the data set “MTT reduction”, the CC50 at 72 h was 200 nM. Moreover, the “Membrane Lipid Peroxidation” value with SK-MEL28 cells (SK-MEL28, 24 HR) was 3 (3 = Concentration related increase with a maximum value ≧30 pg/mL); in the data set with SK-MEL28 cells (setting [2]), 2 (2 = Concentration related increase with maximum values ≧15 pg/mL); in the data set on SK-MEL28 cells (setting [3]), 3 (3 = Concentration related increase with a maximum value ≧30 pg/mL).
